Reference: patent US20190365799A1, “THERAPIES FOR THE TREATMENT OF LIDOCAINE-INEFFECTIVE AND HYPOKALEMIC CONDITIONS” (AlkaliDx, Inc., priority 2016, published 2019)
Entries after “also recorded” stand apart in the source; their conditions may differ.

Experiments:
[1] = test system: sodium channel in the sensory neurons; details: local anesthesia; Rozanski et al. 1988, Nakai et al. 2000; cited from earlier work
[2] = oral potassium salt therapy, general statement; cited from earlier work
[3] = test system: patients with Lidocaine-Ineffective Conditions; assay: Off-label treatment of patients with lidocaine-ineffective conditions with potassium or potassium-elevating drugs (clinical experience, patient reports); assay type: in vivo, human
Procedure: The condition is a chronic one, and patients benefit from increasing the serum potassium both prophylactically and acutely. I have discovered that patients with such “Lidocaine-Ineffective Conditions” that are treated with the compositions and methods of this invention (e.g., potassium supplementation or potassium-elevating agents) derive a significant therapeutic benefit.
Based on our research and discussions with us, patients with lidocaine-ineffective conditions have been treated with potassium and potassium-elevating drugs under the care of their personal physician in off-label use.

[4] = clinical experience with 15 patients, potassium supplementation

In the case of CCN(CC)CC(=O)Nc1c(C)cccc1C [lidocaine], the “share of the population for which lidocaine is ineffective” value [1] is given as 2.7-11%.
For [Cl-].[K+] [potassium chloride], the gastric tolerability [2] is listed as “usually results in stomach upset and gastric pain; also recorded: regularly causes gastric upset”.
In the case of O=C([O-])[C@H](O)[C@@H](O)[C@H](O)[C@H](O)CO.[K+] [potassium gluconate], the gastric tolerability [2] is given as “better tolerated”.
With [K+] [potassium] the nervous system sensitivity [3, 4] was “restore the normal level of nervous system sensitivity”, the “symptoms of ADHD” value [3, 4] was “suppresses the symptoms of ADHD” and the “patient-reported effect of treatment” value ([3]; off-label use under care of personal physician, anecdotal patient reports) was “nothing short of miraculous; also recorded: stopped fighting with their teacher”. The “persistence of effect over time” value ([3]; off-label use, same dose, middle-aged person) was “continued to be as effective, at the same dose, after many months”.
